Here are results for 13 compounds from US20240083857A1, “2-Methyl-Quinazolines” (Bayer Pharma Aktiengesellschaft, priority 2017, published 2024).

The target of assay [1] is K-Ras^G12C : hSOS1 interaction (Homo sapiens, UniProt Q07889). As to the kind of experiment: Biochemical assay 1: K-Ras^G12C interaction assay with hSOS1 (HTRF). The format is binding. The conditions noted are these: read-out: Assay 1 (KRAS-SOS Interaction) activity expressed as IC50. On the procedure:
Biochemical assay 1: K-Ras^G12C Interaction Assay with hSOS1
This assay quantifies the equilibrium interaction of human SOS1 with K-Ras^Gl2C. Detection of the interaction is achieved by measuring homogenous time-resolved fluorescence resonance energy transfer (HTRF) from antiGST-Europium (FRET donor) bound to GST-K-Ras^G12C to anti-6His-XL665 bound to His-tagged hSOS1 (FRET-acceptor).
The assay buffer contained 5 mM HEPES pH 7.4 (Applichem), 150 mM NaCl (Sigma), 10 mM EDTA (Promega), 1 mM DTT (Thermofisher), 0.05% BSA Fraction V, pH 7.0, (ICN Biomedicals), 0.0025% (v/v) Igepal (Sigma) and 100 mM KF (FLUKA).
Concentrations of protein batches used were optimized to be within the linear range of the HTRF signal. A Ras working solution was prepared in assay buffer containing typically 10 nM GST-hK-RasG12C and 2 nM antiGST-Eu(K) (Cisbio, France). A SOS working solution was prepared in assay buffer containing typically 20 nM His-hSOS1 and 10 nM anti-6His-XL665 (Cisbio, France). An inhibitor control solution was prepared in assay buffer containing 10 nM anti-6His-XL665 without hSOS1.
(§1) Fifty nl of a 100-fold concentrated solution of the test compound in DMSO were transferred into a black microtiter test plate (384 or 1536, Greiner Bio-One, Germany). For this, either a Hummingbird liquid handler (Digilab, MA, USA) or an Echo acoustic system (Labcyte, CA, USA) was used.
All steps of the assay were performed at 20° C. A volume of 2.5 μl of the Ras working solution was added to all wells of the test plate using a Multidrop dispenser (Thermo Labsystems). After 2 min preincubation, 2.5 μl of the SOS working solution were added to all wells except for those wells at the side of the test plate that were subsequently filled with 2.5 μl of the inhibitor control solution. After 60 min incubation the fluorescence was measured with a Pherastar (BMG, Germany) using the HTRF module (excitation 337 nm, emission 1: 620 nm, emission 2: 665 nm).
(§2) IC50 values were calculated by 4-Parameter fitting using a commercial software package (Genedata Screener, Switzerland).

Assay [2] addresses human SOS1 (nucleotide exchange of K-Ras^G12C) (Homo sapiens, UniProt Q07889). As to the kind of experiment: Biochemical assay 2: K-Ras^G12C activation assay by hSOS1 at high GTP concentration (HTRF). Particulars: high GTP; for IC50: read-out: Assay 2 (KRAS-Activation by SOS high GTP) activity expressed as IC50.
Description: Biochemical Assay 2: K-Ras^G12C Activation Assay by hSOS1 at High GTP Concentration
This assay quantifies human SOS1-mediated nucleotide exchange of K-Ras^G12C preloaded with a fluorescent […] and in presence of an excess of free GTP. Loaded hK-Ras^G12C generates a high HTRF-signal by energy transfer from antiGST-Terbium (FRET donor) bound to K-Ras to the loaded fluorescent GDP analog (FRET-acceptor). SOS1 activity exchanges the fluorescent GDP for non-fluorescent GTP and therefore leads to a reduction of the HTRF signal.
The fluorescent GDP-analog EDA-GDP-Dy647P1 (2′/3′-O-(2-Aminoethyl-carbamoyl)-guanosine-5′-diphosphate labelled with Dy647P1 (Dyomics GmbH, Germany)) was synthesized by Jena Biosciences GmbH (Germany) and supplied as a 1 mM aqueous solution.
Concentrations of protein batches used were optimized to be within the linear range of the HTRF signal.
Preparation of GST-tagged hK-Ras^Gl2C loaded with fluorescent nucleotide was performed as follows: incubation of 11.5 μM hK-Ras^Gl2C with 5-fold excess GDP-Dy647 nucleotide (54 μM) in 500 μl NLS-buffer (RAS activation Kit Jena Bioscience, Kat. #PR-950) for 10 min at 37° C. Addition of 20 μl 1 M MgCl2 (Sigma) to final 40 mM and store on ice. Purification into buffer (10 mM HEPES pH 7.4 (Applichem), 150 mM NaCl (Sigma), 5 mM MgCl2 (Sigma)) by use of a PD-Minitrap desalting column (GE Healthcare). Concentration of 1 ml purified hK-Ras-GDP-Dy647 is approx. 4-5 μM.
(§3) The assay buffer contained 10 mM HEPES pH 7.4 (Applichem), 150 mM NaCl (Sigma), 5 mM MgCl2 (Sigma), 1 mM DTT (Thermofisher), 0.05% BSA Fraction V, pH 7.0, (ICN Biomedicals), 0.0025% (v/v) Igepal (Sigma).
A Ras working solution was prepared in assay buffer containing typically 80 nM loaded GST-hK-RasG12C-EDA-GDP-Dy647P1 and 2 nM antiGST-Tb (Cisbio, France). A hSOS1 working solution was prepared in assay buffer containing typically 8 nM His-hSOS1 and 100 μM GTP (Jena Bioscience, Germany). An inhibitor control solution was prepared in assay buffer containing the same concentration of […].
as §1
All steps of the assay were performed at 20° C. A volume of 2.5 μl of the Ras working solution was added to all wells of the test plate using a Multidrop dispenser (Thermo Labsystems). After 2 min preincubation, 2.5 μl of the hSOS1 working solution were added to all wells except for those wells at the side of the test plate that were subsequently filled with 2.5 μl of the inhibitor control solution. After 20 min incubation the fluorescence was measured with a Pherastar (BMG, Germany) using the HTRF module (excitation 337 nm, emission 1: 620 nm, emission 2: 665 nm).
as §2
In general terms: Time-resolved FRET reads energy transfer from a long-lived donor to a nearby acceptor.

Assay [3] deals with human SOS1 (loading of human K-Ras^G12C-GDP with fluorescent GTP-analog) (Homo sapiens, UniProt Q07889). Briefly: Biochemical assay 3: K-Ras^G12C activation assay by hSOS1 (HTRF). The conditions noted are these: no GTP; for IC50: read-out: Assay 3 (KRAS-Activation by SOS no GTP) activity expressed as IC50.
Description: Biochemical assay 3: K-Ras^G12C Activation Assay by hSOS1
K-Ras is a small GTPase that can bind GDP and GTP. The guanine nucleotide exchange factor SOS catalyzes the activation of K-Ras by promoting the exchange of GDP to GTP. SOS binds to K-Ras-GDP thereby opening the GDP-binding pocket to facilitate GDP release. Rebinding of excess nucleotide leads to dissociation of the K-Ras-SOS intermediate complex leaving K-Ras loaded with the nucleotide.
This assay quantifies human SOS1-mediated loading of human K-Ras^G12C-GDP with a fluorescent GTP-analog. Detection of successful loading is achieved by measuring homogenous time-resolved fluorescence resonance energy transfer (HTRF) from antiGST-Terbium (FRET donor) bound to GST-K-RasG12C to the loaded fluorescent GTP analog (FRET-acceptor).
The fluorescent GTP-analog EDA-GTP-Dy647P1 (2′/3′-O-(2-Aminoethyl-carbamoyl)-guanosine-5′-triphosphate labelled with Dy647P1 (Dyomics GmbH, Germany)) was synthesized by Jena Biosciences GmbH (Germany) and supplied as a 1 mM aqueous solution.
as §3
Concentrations of protein batches used were optimized to be within the linear range of the HTRF signal. A Ras working solution was prepared in assay buffer containing typically 100 nM GST-hK-RasG12C and 2 nM antiGST-Tb (Cisbio, France). A hSOS1 working solution was prepared in assay buffer containing typically 20 nM hSOS1 and 200 nM EDA-GTP-Dy647P1. An inhibitor control solution was prepared in assay buffer containing 200 nM EDA-GTP-Dy647P1 without hSOS1.
as §1
All steps of the assay were performed at 20° C. A volume of 2.5 μl of the Ras working solution was added to all wells of the test plate using a Multidrop dispenser (Thermo Labsystems). After 10 min preincubation, 2.5 μl of the hSOS1 working solution were added to all wells except for those wells at the side of the test plate that were subsequently filled with 2.5 μl of the inhibitor control solution. After 30 min incubation the fluorescence was measured with a Pherastar (BMG, Germany) using the HTRF module (excitation 337 nm, emission 1: 620 nm, emission 2: 665 nm).
as §2

For `COc1cc2nc(C)nc(N[C@@H](C)c3ccc(-c4cncnc4)s3)c2cc1OC` (racemic) [Example 42, 6,7-dimethoxy-2-methyl-N-{1-[5-(pyrimidin-5-yl)thiophen-2-yl]ethyl}quinazolin-4-amine], the IC50 (commonly the point on the concentration scale where inhibition reaches its midpoint) in assay [1] stood at 4.27 µM; in assay [2] it was 5.58 µM.
Regarding `COc1cc2nc(C)nc(N[C@@H](C)c3ccc(-c4ccc5c(ccn5C)c4)s3)c2cc1OC` (racemic) [Example 49, 6,7-dimethoxy-2-methyl-N-{1-[5-{1-methyl-1H-indol-5-yl)thiophen-2-yl]ethyl}quinazolin-4-amine], the IC50 in assay [1] is 19.6 µM.
Turning to `COCc1ccccc1-c1ccc([C@H](C)Nc2nc(C)nc3cc(OC)c(OC)cc23)s1` (racemic) [Example 50, 6,7-dimethoxy-N-[1-{5-[2-(methoxymethyl)phenyl]thiophen-2-yl}ethyl]-2-methylquinazolin-4-amine], the IC50 in assay [1] is 9.85 µM; in assay [2] it was 20 µM.
As for `COc1cc2nc(C)nc(N[C@@H](C)c3ccc(-c4cccc(C(=O)N(C)C)c4)s3)c2cc1OC` (racemic) [Example 51, 3-(5-{1-[(6,7-dimethoxy-2-methylquinazolin-4-yl)amino]ethyl}thiophen-2-yl)-N,N-dimethylbenzamide], the figures for the IC50 in assay [1] and in assay [2] were 5.63 µM and 5.9 µM, respectively.
On the same counts, the results for `COc1cc2nc(C)nc(N[C@@H](C)c3ccc(-c4ccc(CO)s4)s3)c2cc1OC` (racemic) [Example 52, (5′-{1-[(6,7-dimethoxy-2-methylquinazolin-4-yl)amino]ethyl}-2,2′-bithiophen-5-yl)methanol] are 4.29 µM and 5.46 µM.
As to `COc1cc2nc(C)nc(N[C@@H](C)c3ccc(-c4ccc5c(c4)OCCO5)s3)c2cc1OC` (racemic) [Example 98, N-{1-[5-(2,3-dihydro-1,4-benzodioxin-6-yl)thiophen-2-yl]ethyl}-6,7-dimethoxy-2-methylquinazolin-4-amine], in assay [1], the IC50 is 16.1 µM.
As for `COc1cc2nc(C)nc(N[C@@H](C)c3ccc(-c4ccc(-c5nnc(C)o5)cc4)s3)c2cc1OC` (racemic) [Example 128, 6,7-dimethoxy-2-methyl-N-[1-{5-[4-(5-methyl-1,3,4-oxadiazol-2-yl)phenyl]thiophen-2-yl}ethyl]quinazolin-4-amine], the IC50 came out at 13.9 µM in assay [1] and 16.9 µM in assay [2].
In the case of `CCCNC(=O)c1ccc(-c2ccc([C@H](C)Nc3nc(C)nc4cc(OC)c(OC)cc34)s2)cc1` (racemic) [Example 141, 4-(5-{1-[(6,7-dimethoxy-2-methylquinazolin-4-yl)amino]ethyl}thiophen-2-yl)-N-propylbenzamide], the IC50 in assay [1] was determined as 5.63 µM; in assay [3] it was 11.1 µM.
Turning to `COc1cc2nc(C)nc(N[C@@H](C)c3ccc(-c4cccc(OC(F)(F)F)c4)s3)c2cc1OC` (racemic) [Example 151, 6,7-dimethoxy-2-methyl-N-[1-{5-[3-(trifluoromethoxy)phenyl]thiophen-2-yl}ethyl]quinazolin-4-amine], the IC50 was determined as 10.4 µM in assay [1] and 13.3 µM in assay [3].
Take `COc1cc2nc(C)nc(N[C@@H](C)c3ccc(-c4ccc5c(c4)OCO5)s3)c2cc1OC` (racemic) [Example 163, N-{1-[5-(1,3-benzodioxol-5-yl)thiophen-2-yl]ethyl}-6,7-dimethoxy-2-methylquinazolin-4-amine]: the IC50 in assay [1] amounted to 13.6 µM.
As to `COc1cccc(-c2ccc([C@H](C)Nc3nc(C)nc4cc(OC)c(OC)cc34)s2)c1` (racemic) [Example 167, 6,7-dimethoxy-N-{1-[5-(3-methoxyphenyl)thiophen-2-yl]ethyl}-2-methylquinazolin-4-amine], the IC50 in assay [1] amounted to 16.9 µM.
Take `COc1cc2nc(C)nc(N[C@@H](C)c3ccc(-c4cccc(C(F)(F)F)c4)s3)c2cc1OC` (racemic) [Example 168, 6,7-dimethoxy-2-methyl-N-[1-{5-[3-(trifluoromethyl)phenyl]thiophen-2-yl}ethyl]quinazolin-4-amine]: in assay [1], the IC50 was determined as 12.2 µM.
With `COc1cc2nc(C)nc(N[C@@H](C)c3ccc(-c4cccc(C(F)(F)F)c4)s3)c2cc1OC` (stereo in doubt) [Example 168, 6,7-dimethoxy-2-methyl-N-[1-{5-[3-(trifluoromethyl)phenyl]thiophen-2-yl}ethyl]quinazolin-4-amine], the inhibition (in general, the percentage by which the read-out fell short of the control) at 20 µM in assay [3] (read-out: Assay 3 (KRAS-Activation by SOS no GTP) activity expressed as % inhibition at 20 μM, at 20 μM) came to 32%; in assay [2] (read-out: Assay 2 (KRAS-Activation by SOS high GTP) activity expressed as % inhibition at 20 μM, at 20 μM), 38%.
